# Reference: patent US5614550A, “Amide and urea derivatives having anti-hypercholesteremic activity, their preparation and their therapeutic uses” (Sankyo Company, Limited, priority 1993, dated 1997)
# Target: T1, ACAT in M.phi. (acyl-CoA: cholesterol acyl transferase) (Mus musculus, UniProt Q61263)
# T1 construct: endogenous in cells; host or cells: primary adherent peritoneal macrophages from unstimulated female DDY mice
# T1 sequence (Q61263 1-540): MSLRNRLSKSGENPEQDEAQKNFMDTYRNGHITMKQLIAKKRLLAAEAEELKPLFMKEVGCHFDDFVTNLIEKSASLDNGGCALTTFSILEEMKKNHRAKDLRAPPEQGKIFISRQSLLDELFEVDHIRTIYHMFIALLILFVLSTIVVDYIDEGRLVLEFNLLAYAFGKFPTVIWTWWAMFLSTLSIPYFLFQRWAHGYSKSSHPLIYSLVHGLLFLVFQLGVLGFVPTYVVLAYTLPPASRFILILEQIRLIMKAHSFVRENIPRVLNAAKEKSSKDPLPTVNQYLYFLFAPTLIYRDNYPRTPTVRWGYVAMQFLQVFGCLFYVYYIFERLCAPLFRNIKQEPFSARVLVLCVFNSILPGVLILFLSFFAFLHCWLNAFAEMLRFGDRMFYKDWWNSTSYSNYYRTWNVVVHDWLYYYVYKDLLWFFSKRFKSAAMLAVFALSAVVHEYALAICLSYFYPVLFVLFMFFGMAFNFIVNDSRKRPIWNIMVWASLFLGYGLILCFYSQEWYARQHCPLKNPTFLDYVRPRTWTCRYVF
# Experiment: Inhibition of ACAT in mouse macrophages (M.phi.), cholesterol [14C]oleate formation
# Format: cell-based
# Set-up: dose or concentration left out as unconfirmed
# Conditions: mouse peritoneal macrophages, beta-VLDL, 37° C., 3 hours
# Protocol: Blood was obtained [using the anticoagulant ethylene diamine tetraacetic acid (5 mM)] from Japanese White rabbits which had been fed a 2% w/w cholesterol diet for 2 weeks and then fasted overnight prior to removing the blood. β-VLDL (d<1.006 g/ml) was isolated by ultracentrifugation from the plasma according to the method of Hatch and Lees [Hatch, F. T. and Lees, R. S., Adv. Lipid Res., 6, 1-68 (1968)] and dialyzed against 10 mM of a sodium phosphate buffer (pH 7.4) containing 150 mM sodium chloride at 4° C.
# Peritoneal cells were harvested from unstimulated female DDY mice (body weight 20-30 g) in phosphate buffer saline (PBS) as described by Edelson and Cohn [Edelson, P. J. and Cohn, Z. A., 1976, IN VITRO Methods in Cell-Mediated and Tumor Immunity, eds, Bloon, B. R. and DAvid, J. R., (Academic, New York), 333-340.]. The fluid from the mice was pooled and the cells were collected by centrifugation at 400× g, for 10 minutes at 4° C., and washed once with PBS. The cells were resuspended in Dulbecco's modified Eagle's medium (DMEM) containing 10% (vol/vol) fetal calf serum (FCS), penicillin (100 units/ml), and streptomycin (100 μg/ml) at a final concentration of 3×10^6 cells per ml. Aliquots (1 ml) of this cell suspension were dispersed onto plastic Petri dishes (35×10 mm) and then incubated in a CO2 incubator (5% CO2 /95% air) at 37° C. for 2 hours. Each dish was washed twice with PBS without serum to remove nonadherent cells. The cells were washed twice with 2 ml of PBS and used for the experiment.
# Inhibition of ACAT in M.phi. was determined according to the method described by Brown et al. [Brown, M. S., Goldstein J. L., Krieger, M., Ho, Y. K. and Anderson, R. G. W. (1979) J. Cell Biol., 82, 597-613.]. Cholesterol reacylation was initiated by adding β-VLDL (final concentration 50 μg/ml cholesterol), [^14 C]oleate-albumin complex (final concentrations: 0.2 mM oleate and 0.6 mg/ml albumin) and a test compound dissolved in ethanol into the M.phi. monolayer, and the preparation was incubated at 37° C. for 3 hours in a CO2 incubator. Cells were washed three times with PBS and cellular lipid was extracted with 1 ml hexane/isopropanol (3:2, vol/vol). A lipid extract was evaporated in a stream of nitrogen. Cholesterol [^14 C]oleated was seperated by thin layer chromatography through silica gel using a 85:15:1 by volume mixture of hexane, diethyl ether and acetic acid as developing solvents. The ACAT activity in M.phi. was determined by measuring the radioactivity and an inhibition rate (%) was calculated by comparing a control activity with those of the test compound at given concentrations.
row,SMILES,inhibition
1,"CC(C)c1cccc(C(C)C)c1NC(=O)CC1c2ccccc2Oc2ccccc21 [Compound A, reference compound]",51%
2,"CC(C)(C)c1ccc(CCC(=O)CC2CCCCC2)cc1NC(=O)CC1c2ccccc2Oc2ccccc21 [Example 13, N-[2-t-Butyl-5-(4-cyclohexyl-3-oxobutyl)phenyl]-2-(9H-xanthen-9-yl)acetamide]",80%
3,"CC(C)(C)c1ccc(CCC(O)CCC2CCCCC2)cc1NC(=O)CC1c2ccccc2Oc2ccccc21 (centres unmarked) [Example 26, N-[2-t-Butyl-5-(5-cyclohexyl-3-hydroxypentyl)phenyl]-2-(9H-xanthen-9-yl)acetamide]",77%
4,"CC(C)(C)c1ccc(CCC(O)CCCCC2CCCCC2)cc1NC(=O)CC1c2ccccc2Oc2ccccc21 (centres unmarked) [Example 44, N-[2-t-Butyl-5-(7-cyclohexyl-3-hydroxyheptyl)phenyl]-2-(9H-xanthen-9-yl)acetamide]",89%
5,"CC(C)(C)c1ccc(CCC(O)C2CCCCCC2)cc1NC(=O)CC1c2ccccc2Oc2ccccc21 (centres unmarked) [Example 98, N-[2-t-Butyl-5-(3-cycloheptyl-3-hydroxypropyl)phenyl]-2-(9H-xanthen-9-yl)acetamide]",81%
6,"CC(C)c1cccc(CCC(O)CCCC2CCCCC2)c1NC(=O)CC1c2ccccc2Oc2ccccc21 (centres unmarked) [Example 125, N-[2-Isopropyl-6-(6-cyclohexyl-3-hydroxyhexyl)phenyl]-2-(9H-xanthen-9-yl)acetamide]",85%
7,"CC(C)(C)c1ccc(CCC(O)CCOC2CCCCC2)cc1NC(=O)CC1c2ccccc2Oc2ccccc21 (centres unmarked) [Example 217, N-[2-t-Butyl-5-(5-cyclohexyloxy-3-hydroxypentyl)phenyl]-2-(9H-xanthen-9-yl)acetamide]",74%
8,"CC(C)(C)c1ccc(CCC(O)COCCC2CCCCC2)cc1NC(=O)CC1c2ccccc2Oc2ccccc21 (centres unmarked) [Example 219, N-{2-t-Butyl-5-[4-(2-cyclohexylethoxy)-3-hydroxybutyl]phenyl}-2-(9H-xanthen-9-yl)acetamide]",86%
